Literature values in patent publication US12371748B2, “Genetic markers for predicting responsiveness to therapy with HDL-raising or HDL mimicking agent” (Hoffmann-La Roche Inc., priority 2014, dated 2025).

Target: T1, CETP (Oryctolagus cuniculus, UniProt P22687)
T1 construct: host or cells: rabbits (in vivo; endogenous plasma CETP)
T1 sequence (P22687 2-497): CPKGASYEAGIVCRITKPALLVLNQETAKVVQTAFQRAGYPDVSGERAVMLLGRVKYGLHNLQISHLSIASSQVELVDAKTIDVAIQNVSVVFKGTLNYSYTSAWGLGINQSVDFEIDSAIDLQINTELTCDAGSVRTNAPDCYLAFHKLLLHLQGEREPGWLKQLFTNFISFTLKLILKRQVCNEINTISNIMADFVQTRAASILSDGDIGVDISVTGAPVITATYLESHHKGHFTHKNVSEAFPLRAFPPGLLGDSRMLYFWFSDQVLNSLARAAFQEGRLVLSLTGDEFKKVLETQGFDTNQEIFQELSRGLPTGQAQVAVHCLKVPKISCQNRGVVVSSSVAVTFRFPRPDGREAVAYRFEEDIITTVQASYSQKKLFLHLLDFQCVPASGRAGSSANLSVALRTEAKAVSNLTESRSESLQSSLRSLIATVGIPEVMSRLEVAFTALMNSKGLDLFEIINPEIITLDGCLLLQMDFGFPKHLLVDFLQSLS
Details: rabbits; cited from earlier work

## CCC(CC)CC1(C(=O)Nc2ccccc2SC(=O)C(C)C)CCCCC1 [dalcetrapib, thioisobutyric acid S-(2-{[1-(2-ethyl-butyl)-cyclohexanecarbonyl]-amino}-phenyl) ester]
  CETP activity: inhibitor of CETP activity
